Data from patent US9695155B2, “Herbicidal substituted pyrimidinyloxy benzene compounds” (E. I. DU PONT DE NEMOURS AND COMPANY, priority 2013, dated 2017).

How the values were obtained:
[1] = system: large (Lg) crabgrass; assay: Test A preemergence; type: in vivo, Digitaria sanguinalis
Method in brief: (§1)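 Compounds in non-phytotoxic solvent with surfactant applied as soil spray preemergence, or postemergence to plants 2-10 cm at one- to two-leaf stage, in loam/sand. After approximately 10 days in greenhouse, injury rated visually versus untreated controls, 0 (no effect) to 100 (complete control).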

[2] = system: morningglory; assay: Test A preemergence; type: in vivo, Ipomoea spp.
Method in brief: as §1

[3] = system: velvetleaf; assay: Test A preemergence; type: in vivo, Abutilon theophrasti
Method in brief: as §1

[4] = system: corn; assay: Test A preemergence; type: in vivo, Zea mays
Method in brief: as §1

[5] = system: barnyardgrass; assay: Test A postemergence; type: in vivo, Echinochloa crus-galli; conditions: Echinochloa crus-galli, post-emergence, 240 h, read-out: Plant response rating, Barnyardgrass
Method in brief: as §1

[6] = system: wheat; assay: Test A postemergence; type: in vivo, Triticum aestivum; conditions: Triticum aestivum, post-emergence, 240 h, read-out: Plant response rating, Wheat
Method in brief: as §1

[7] = system: rice; assay: Test B flooded paddy test; type: in vivo, Oryza sativa; conditions: Oryza sativa; Flood, 250 g ai/ha; 0 to 100 scale where 0 is no effect and 100 is complete control; read-out: Plant response rating, Rice
Method in brief: (§2)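 Seedlings are raised to two leaves, flooded to a depth of 3 cm and dosed by adding the compound to the floodwater. Water level is kept constant, and plants are scored visually versus controls 13–15 days later (0 = no effect, 100 = complete control).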

[8] = system: sedge, umbrella; assay: Test B flooded paddy test; type: in vivo, Cyperus difformis; conditions: Cyperus difformis, Flood, 250 g ai/ha; 0 to 100 scale where 0 is no effect and 100 is complete control; read-out: Plant response rating, Sedge, Umbrella
Method in brief: as §2

[9] = system: Heteranthera limosa; assay: Test B flooded paddy test; type: in vivo; conditions: Heteranthera limosa, Flood, 250 g ai/ha; 0 to 100 scale where 0 is no effect and 100 is complete control; read-out: Plant response rating, Ducksalad
Method in brief: as §2

[10] = system: barnyardgrass; assay: Test B flooded paddy test; type: in vivo, Echinochloa crus-galli; conditions: Echinochloa crus-galli; Flood, 250 g ai/ha; 0 to 100 scale where 0 is no effect and 100 is complete control; read-out: Plant response rating, Barnyardgrass
Method in brief: as §2

[11] = system: wheat, winter; assay: Test C postemergence; type: in vivo, Triticum aestivum
Method in brief: (§3)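 Seeds are planted in blended loam soil and sand and treated preemergence, while seedlings in a peat moss/vermiculite medium receive postemergence sprays at 2 to 18 cm height. All plants stay in the greenhouse for 13 to 15 days before visual comparison with controls on a 0–100 scale.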

[12] = system: corn; assay: Test C postemergence; type: in vivo, Zea mays; conditions: Zea mays, post-emergence
Method in brief: as §3

[13] = system: giant foxtail; assay: Test C postemergence; type: in vivo, Setaria faberii; conditions: Setaria faberi, post-emergence
Method in brief: as §3

[14] = system: morningglory; assay: Test C postemergence; type: in vivo, Ipomoea coccinea
Method in brief: as §3

[15] = system: yellow nutsedge; assay: Test C postemergence; type: in vivo, Cyperus esculentus
Method in brief: as §3

[16] = system: ragweed; assay: Test C postemergence; type: in vivo, Ambrosia elatior
Method in brief: as §3

[17] = system: soybean; assay: Test C postemergence; type: in vivo, Glycine max
Method in brief: as §3

[18] = 125 g ai/ha, 0 to 100 scale, 0 no effect, 100 complete control
[19] = 500 g ai/ha, 0 to 100 scale where 0 is no effect and 100 is complete control
[20] = 31 g ai/ha, postemergence, visual rating, scale 0 to 100 (0 no effect, 100 complete control), 13 to 15 days

## N#Cc1cccc(Oc2ncc(Cl)cn2)c1-n1cc(OCC(F)(F)F)cn1 [Compound 274, 3-[(5-chloro-2-pyrimidinyl)oxy]-2-[4-(2,2,2-trifluoroethoxy)-1H-pyrazol-1-yl]benzonitrile]
[1]; 125 g ai/ha
  Crabgrass, Large plant response rating (0 to 100 scale): 100
[1]; Digitaria sanguinalis, pre-emergence, 240 h, 500 g ai/ha, 0 to 100 scale where 0 is no effect and 100 is complete control, read-out: Crabgrass, Large plant response rating
  pest or weed control at 500 g/ha: 100%
[2]; 125 g ai/ha
  Morningglory plant response rating (0 to 100 scale): 100
[2]; Ipomoea, pre-emergence, 240 h, 500 g ai/ha, 0 to 100 scale where 0 is no effect and 100 is complete control, read-out: Morningglory plant response rating
  pest or weed control at 500 g/ha: 100%
[3]; 125 g ai/ha
  Velvetleaf plant response rating (0 to 100 scale): 100
[3]; Abutilon theophrasti, pre-emergence, 240 h, 500 g ai/ha, 0 to 100 scale where 0 is no effect and 100 is complete control, read-out: Velvetleaf plant response rating
  pest or weed control at 500 g/ha: 100%
[4]; 125 g ai/ha
  Corn plant response rating (0 to 100 scale): 50
[4]; Zea mays, pre-emergence, 240 h, 500 g ai/ha, 0 to 100 scale where 0 is no effect and 100 is complete control, read-out: Corn plant response rating
  plant injury at 500 g/ha: 50%
[5]; [18]
  pest or weed control at 125 g/ha: 90%
[5]; [19]
  pest or weed control at 500 g/ha: 100%
[6]; [18]
  plant injury at 125 g/ha: 70%
[6]; [19]
  plant injury at 500 g/ha: 80%
[7]
  plant injury at 250 g/ha: 60%
[8]
  pest or weed control at 250 g/ha: 95%
[9]
  pest or weed control at 250 g/ha: 95%
[10]
  pest or weed control at 250 g/ha: 65%
[11]; [20]
  Wheat plant response rating: 5
[11]; Triticum aestivum, post-emergence, 16 g ai/ha, postemergence, 0 is no effect, 100 is complete control, read-out: Plant response rating (0 to 100), Wheat
  plant injury at 16 g/ha: 5%
[11]; Triticum aestivum, post-emergence, 125 g ai/ha, postemergence, visual rating, scale 0 to 100 (0 no effect, 100 complete control), read-out: Plant response rating, Wheat
  plant injury at 125 g/ha: 15%
[11]; Triticum aestivum, post-emergence, Postemergence, 62 g ai/ha, scale 0 to 100 (0 no effect, 100 complete control), 13 to 15 days, read-out: Plant response rating, Wheat
  plant injury at 62 g/ha: 5%
[12]; 16 g ai/ha, postemergence, 0 is no effect, 100 is complete control, read-out: Plant response rating (0 to 100), Corn
  plant injury at 16 g/ha: 5%
[12]; 31 g ai/ha, postemergence, visual rating, scale 0 to 100 (0 no effect, 100 complete control), 13 to 15 days, read-out: Corn plant response rating
  plant injury at 31 g/ha: 10%
[12]; 125 g ai/ha, postemergence, visual rating, scale 0 to 100 (0 no effect, 100 complete control)
  Corn plant response rating (crop injury, 0 = no effect, 100 = complete kill) at 125 g/ha: 15%
[12]; Postemergence, 62 g ai/ha, scale 0 to 100 (0 no effect, 100 complete control), 13 to 15 days
  Corn plant response rating (crop injury, 0 = no effect, 100 = complete kill) at 62 g/ha: 10%
[13]; 16 g ai/ha, postemergence, 0 is no effect, 100 is complete control, read-out: Plant response rating (0 to 100), Foxtail, Giant
  pest or weed control at 16 g/ha: 5%
[13]; 31 g ai/ha, postemergence, visual rating, scale 0 to 100 (0 no effect, 100 complete control), 13 to 15 days, read-out: Foxtail, Giant plant response rating
  pest or weed control at 31 g/ha: 10%
[13]; 125 g ai/ha, postemergence, visual rating, scale 0 to 100 (0 no effect, 100 complete control), read-out: Plant response rating, Foxtail, Giant
  pest or weed control at 125 g/ha: 60%
[13]; Postemergence, 62 g ai/ha, scale 0 to 100 (0 no effect, 100 complete control), 13 to 15 days, read-out: Plant response rating, Foxtail, Giant
  pest or weed control at 62 g/ha: 10%
[14]; [20]
  Morningglory plant response rating: 85
[14]; Ipomoea, post-emergence, 16 g ai/ha, postemergence, 0 is no effect, 100 is complete control, read-out: Plant response rating (0 to 100), Morningglory
  pest or weed control at 16 g/ha: 85%
[14]; Ipomoea, post-emergence, 125 g ai/ha, postemergence, visual rating, scale 0 to 100 (0 no effect, 100 complete control), read-out: Plant response rating, Morningglory
  pest or weed control at 125 g/ha: 95%
[14]; Ipomoea, post-emergence, Postemergence, 62 g ai/ha, scale 0 to 100 (0 no effect, 100 complete control), 13 to 15 days, read-out: Plant response rating, Morningglory
  pest or weed control at 62 g/ha: 95%
[15]; [20]
  Nutsedge, Yellow plant response rating: 5
[15]; Cyperus, post-emergence, 16 g ai/ha, postemergence, 0 is no effect, 100 is complete control, read-out: Plant response rating (0 to 100), Nutsedge, Yellow
  pest or weed control at 16 g/ha: 10%
[15]; Cyperus, post-emergence, 125 g ai/ha, postemergence, visual rating, scale 0 to 100 (0 no effect, 100 complete control), read-out: Plant response rating, Nutsedge, Yellow
  pest or weed control at 125 g/ha: 10%
[15]; Cyperus, post-emergence, Postemergence, 62 g ai/ha, scale 0 to 100 (0 no effect, 100 complete control), 13 to 15 days, read-out: Plant response rating, Nutsedge, Yellow
  pest or weed control at 62 g/ha: 20%
[16]; [20]
  Ragweed plant response rating: 60
[16]; Ambrosia artemisiifolia, post-emergence, 16 g ai/ha, postemergence, 0 is no effect, 100 is complete control, read-out: Plant response rating (0 to 100), Ragweed
  pest or weed control at 16 g/ha: 50%
[16]; Ambrosia artemisiifolia, post-emergence, 125 g ai/ha, postemergence, visual rating, scale 0 to 100 (0 no effect, 100 complete control), read-out: Plant response rating, Ragweed
  pest or weed control at 125 g/ha: 75%
[16]; Ambrosia artemisiifolia, post-emergence, Postemergence, 62 g ai/ha, scale 0 to 100 (0 no effect, 100 complete control), 13 to 15 days, read-out: Plant response rating, Ragweed
  pest or weed control at 62 g/ha: 40%
[17]; [20]
  Soybean plant response rating: 70
[17]; Glycine max, post-emergence, 16 g ai/ha, postemergence, 0 is no effect, 100 is complete control
  Soybean plant response rating (crop injury, 0-100 scale) at 16 g/ha: 45%
[17]; Glycine max, post-emergence, 125 g ai/ha, postemergence, visual rating, scale 0 to 100 (0 no effect, 100 complete control), read-out: Plant response rating, Soybean
  Soybean plant response rating (crop injury, 0-100 scale) at 125 g/ha: 98%
[17]; Glycine max, post-emergence, Postemergence, 62 g ai/ha, scale 0 to 100 (0 no effect, 100 complete control), 13 to 15 days
  Soybean plant response rating (crop injury, 0-100 scale) at 62 g/ha: 90%
